Reference: US20230167088A1, “1-PYRAZINYLPYRAZOLYL-3-OXYALKYL ACIDS AND THEIR DERIVATIVES, AND THEIR USE FOR CONTROL OF UNDESIRED PLANT GROWTH” (BAYER AKTIENGESELLSCHAFT, priority 2020, published 2023)

Assays:
[1] = test system: POAAN; assay: Herbicidal post-emergence action 1b (twin sowing, 1280 g/ha); assay type: in vivo, Poa annua; details: dosage 1280 g/ha, visual rating about 3 weeks after treatment
Procedure, shortened: (§1)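 Greenhouse weed pairs (mono- with dicotyledonous) were treated 2–3 weeks after sowing, at one leaf, using an aqueous spray at 600 L/ha carrying 0.5% additive. Percent activity, judged by eye against untreated plants, was recorded roughly 3 weeks post-application.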

[2] = test system: DIGSA; assay: as above; assay type: in vivo, Digitaria sanguinalis; details: dosage 1280 g/ha, visual rating about 3 weeks after treatment
Procedure: (§2) [table] b) Seeds of mono- and dicotyledonous weed plants are placed in plastic pots in sandy loam soil (twin sowing with one species each of mono- or dicotyledonous weed plants per pot), covered with soil and cultivated in a greenhouse under controlled growth conditions. 2 to 3 weeks after sowing, the test plants are treated at the one-leaf stage. The compounds of the invention, formulated in the form of wettable powders (WP) or as emulsion concentrates (EC), are applied to the green parts of the plants as aqueous suspension or emulsion with addition of 0.5% additive at a water application rate equivalent to 600 litres per hectare. After the test plants have been kept in the greenhouse under optimum growth conditions for about 3 weeks, the activity of the preparations is rated visually in comparison to untreated controls. For example, 100% activity=the plants have died, 0% activity=like control plants. Tables A16 to A21 below show the effects of selected compounds of the general formula (I) according to Tables 1 and 2 on various harmful plants and at an application rate corresponding to 1280 g/ha, which were obtained by the experimental procedure mentioned above.

[3] = test system: ECHCG; assay: Herbicidal pre-emergence action 2b (doubly sown, 1280 g/ha); assay type: in vivo, Echinochloa crus-galli; details: doubly sown pots, dosage 1280 g/ha, visual scoring after about 3 weeks
Procedure, shortened: (§3)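 Compounds were sprayed pre-emergence as wettable powders or emulsion concentrates onto soil covering freshly sown weed seeds, two species per pot. Percent activity was judged by eye roughly 3 weeks later versus untreated plants.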

[4] = test system: ABUTH; assay: Herbicidal post-emergence action 1b (twin sowing, 1280 g/ha); assay type: in vivo, Abutilon theophrasti; details: dosage 1280 g/ha, visual rating about 3 weeks after treatment
Procedure: as §2

[5] = test system: AMARE; assay: Herbicidal pre-emergence action 2b (doubly sown, 1280 g/ha); assay type: in vivo, Amaranthus retroflexus; details: doubly sown pots, dosage 1280 g/ha, visual scoring after about 3 weeks
Procedure, shortened: as §3

[6] = test system: MATIN; assay: as above; assay type: in vivo, Matricaria inodora; details: doubly sown pots, dosage 1280 g/ha, visual scoring after about 3 weeks
Procedure, shortened: as §3

[7] = test system: STEME; assay: Herbicidal post-emergence action 1b (twin sowing, 1280 g/ha); assay type: in vivo, Stellaria media; details: dosage 1280 g/ha, visual rating about 3 weeks after treatment
Procedure, shortened: as §1

[8] = test system: POAAN; assay: Herbicidal pre-emergence action 2b (doubly sown, 1280 g/ha); assay type: in vivo, Poa annua; details: doubly sown pots, dosage 1280 g/ha, visual scoring after about 3 weeks
Procedure, shortened: as §3

[9] = test system: MATIN; assay: Herbicidal post-emergence action 1b (twin sowing, 1280 g/ha); assay type: in vivo, Matricaria inodora; details: dosage 1280 g/ha, visual rating about 3 weeks after treatment
Procedure, shortened: as §1

[10] = test system: STEME; assay: Herbicidal pre-emergence action 2b (doubly sown, 1280 g/ha); assay type: in vivo, Stellaria media; details: doubly sown pots, dosage 1280 g/ha, visual scoring after about 3 weeks
Procedure, shortened: as §3

[11] = test system: DIGSA; assay: as above; assay type: in vivo, Digitaria sanguinalis; details: doubly sown pots, dosage 1280 g/ha, visual scoring after about 3 weeks
Procedure, shortened: as §3

[12] = test system: ECHCG; assay: Herbicidal post-emergence action 1b (twin sowing, 1280 g/ha); assay type: in vivo, Echinochloa crus-galli; details: dosage 1280 g/ha, visual rating about 3 weeks after treatment
Procedure: as §2

[13] = test system: DIGSA; assay: Herbicidal post-emergence action 1a (greenhouse pots, visual rating); assay type: in vivo, Digitaria sanguinalis; details: Dosage 80 g/ha; rated visually about 3 weeks after treatment; 100% = plants have died, 0% = like control plants
Procedure: (§4) [table] a) Seeds of monocotyledonous and dicotyledonous weeds and crop plants are placed in sandy loam in plastic or organic plant pots, covered with soil and cultivated in a greenhouse under controlled growth conditions. 2 to 3 weeks after sowing, the test plants are treated at the one-leaf stage. The compounds of the invention, formulated in the form of wettable powders (WP) or as emulsion concentrates (EC), are then sprayed onto the green parts of the plants as aqueous suspension or emulsion with addition of 0.5% additive at a water application rate of 600 1/ha (converted). After the test plants have been kept in the greenhouse under optimum growth conditions for about 3 weeks, the activity of the preparations is rated visually in comparison to untreated controls. For example, 100% activity=the plants have died, 0% activity=like control plants. Tables A1 to A15 below show the effects of selected compounds of the general formula (I) according to Tables 1 and 2 on various harmful plants and an application rate corresponding to 320 g/ha and/or 80 g/ha, which were obtained by the experimental procedure mentioned above.

[14] = test system: DIGSA; assay: Herbicidal pre-emergence action 2a (greenhouse pots, visual scoring); assay type: in vivo, Digitaria sanguinalis; details: dosage 80 g/ha, visual scoring after about 3 weeks
Excerpt: [table] a) Seeds of monocotyledonous and dicotyledonous weed plants and crop plants are placed in plastic or organic plant pots and covered with soil. The compounds of the invention, formulated in the form of wettable powders (WP) or as emulsion concentrates (EC), are then applied onto the surface of the covering soil as aqueous suspension or emulsion with addition of 0.5% additive at a water application rate of 600 1/ha (converted). After the treatment, the pots are placed in a greenhouse and kept under good growth conditions for the trial plants. After about 3 weeks, the effect of the preparations is scored visually in comparison with untreated controls as percentages. For example, 100% activity=the plants have died, 0% activity=like control plants. Tables B1 to B15 below show the effects of selected compounds of the general formula (I) according to Tables 1 and 2 on various harmful plants and an application rate corresponding to 320 g/ha and/or 80 g/ha, which were obtained by the experimental procedure mentioned above.

[15] = test system: AMARE; assay: as above; assay type: in vivo, Amaranthus retroflexus; details: dosage 80 g/ha, visual scoring after about 3 weeks vs untreated controls
Procedure, shortened: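 Pre-emergence greenhouse pot test: WP or EC formulations sprayed onto covering soil over sown seeds at 600 l/ha water with 0.5% additive, at rates corresponding to 320 g/ha and/or 80 g/ha. Visual % activity versus untreated controls after about 3 weeks (100% = plants dead).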

[16] = test system: PHBPU; assay: Herbicidal post-emergence action 1a (greenhouse pots, visual rating); assay type: in vivo, Pharbitis purpurea; details: dosage 80 g/ha, visual rating about 3 weeks after treatment
Procedure: as §4

[17] = test system: ALOMY; assay: as above; assay type: in vivo, Alopecurus myosuroides; details: Dosage 80 g/ha; rated visually about 3 weeks after treatment; 100% = plants have died, 0% = like control plants
Procedure, shortened: (§5)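 Visual scoring versus untreated plants (100% = plants dead, 0% = as control) followed roughly 3 weeks in the greenhouse after treatment. Plants grown in sandy loam pots had been sprayed on green parts at the one-leaf stage, 2–3 weeks post-sowing, with aqueous WP/EC preparations containing 0.5% additive, 600 l/ha, at 320 and/or 80 g/ha.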

[18] = test system: AMARE; assay: as above; assay type: in vivo, Amaranthus retroflexus; details: dosage 80 g/ha, visual rating about 3 weeks after treatment
Procedure, shortened: as §5

Compound	Post-emergence action at 1280 g/ha against POAAN in % [1] [%]	Post-emergence action at 1280 g/ha against DIGSA in % [2] [%]	Pre-emergence action at 1280 g/ha against ECHCG in % [3] [%]	Post-emergence action at 1280 g/ha against ABUTH in % [4] [%]	Pre-emergence action at 1280 g/ha against AMARE in % [5] [%]	Pre-emergence action at 1280 g/ha against MATIN in % [6] [%]	Post-emergence action at 1280 g/ha against STEME in % [7] [%]	Pre-emergence action at 1280 g/ha against POAAN in % [8] [%]	Post-emergence action at 1280 g/ha against MATIN in % [9] [%]	Pre-emergence action at 1280 g/ha against STEME in % [10] [%]	Pre-emergence action at 1280 g/ha against DIGSA in % [11] [%]	Post-emergence action at 1280 g/ha against ECHCG in % [12] [%]	Post-emergence action against DIGSA in % [13] [%]	Pre-emergence action against DIGSA in % [14] [%]	Pre-emergence action against AMARE in % [15] [%]	Post-emergence action against PHBPU in % [16] [%]	Post-emergence action against ALOMY in % [17] [%]	Post-emergence action against AMARE in % [18] [%]
COC(=O)[C@H](C)Oc1nn(-c2cnccn2)c(-c2ccc(F)nc2)c1Br [Example I-18]	100	100	100	90	100	90	100	100	90	100	100	–	–	–	–	–	–	–
COC(=O)[C@@H](C)Oc1nn(-c2cnccn2)c(-c2cncnc2)c1Br [Example I-30]	100	100	100	90	100	90	90	100	–	100	100	90	–	–	–	–	–	–
CC(Oc1nn(-c2cnccn2)c(-c2ccc(F)c(F)c2)c1Br)C(=O)O (stereo not shown) [Example I-47]	100	100	100	90	100	100	100	100	90	100	100	100	80	100	90	80	90	80
